The values below come from patent US20260117192A1, “METHODS OF PRODUCING A TUMOR AVATAR” (ARIEL SCIENTIFIC INNOVATIONS LTD., priority 2023, published 2026).

The subject of one assay is gastric cancer organoids. Kind of assay: Drug cytotoxicity, CellTiter-Glo cell viability and bright field images, organoids. In kind it is cell-based, human. The conditions noted are these: for cell death: targeted drugs at concentrations found in peripheral blood (crizotinib 1 μM, osimertinib 0.8 μM, afatinib 0.150 μM); for effect on viability: targeted drugs, 72 hours (dasatinib 0.180 μM, gefitinib 3 μM, imatinib 4 μM, capmatinib 8 μM). As for the experimental part: (§1) Organoids and stroma cells isolation and culture: Human gastric cancer along with surrounding normal tissue were obtained from a consenting patient undergoing surgery at Ichilov Hospital, with approval from the Institutional Review Board. The samples were transported in cold hypothermosol medium and processed within 24 hours post-surgery. Upon acquisition, the tumor tissue was divided into three equal parts for various analyses. One third was snap-frozen for subsequent DNA isolation, another third was fixed in 4% paraformaldehyde for histological examination, and the remaining portion was prepared for cell culture. The tissue underwent digestion using Collagenase I (1 mg/ml), Liberase, and DNAse (10 ug/ml), followed by separation into organoids and stroma cell cultures. Organoids were cultured as previously described hereinbelow, with medium replacement twice weekly and passaging via mechanical and enzymatic dissociation using TrypLE enzyme. Stroma cells were cultured in mesenchymal stem cell medium (MSCM) on pre-coated Matrigel (20%) and fibronectin (2 μg/cm2) 4-well dish plates. Upon reaching 80% confluency the cells were subculturing using accutase to 6 well plate and then to 25 cm flask. From passage 3 onwards, cells were sub-cultured in 25 cm flask and then in 75 cm flasks using MSCM, endothelial cell medium (ECM), or fibroblast medium (FM-2) for subsequent passages. Bright field images were obtained using Operetta High Content Screening System or Leica microscope.
(§2) Cell viability assay: To assess co-culture growth rates and the cytotoxic effects of various drugs, a luminescent cell viability assay was conducted using the CellTiter-Glo kit from Promega following the manufacturer's guidelines. For the drug cytotoxicity assay, co-cultures or organoids were seeded in 384-well plates and allowed to organize for 48 hours. […] The chosen drug concentrations were based on their higher plasma concentration values. Following treatment, each well containing co-cultures or organoids was lysed using CellTiter-Glo reagents, thoroughly mixed, and incubated for 30 minutes, after which luminescence was measured.

In assay [1] the test system is ECM:FM2:ORG co-cultures (TECs:TASCs:Org). Kind of assay: Drug cytotoxicity, CellTiter-Glo cell viability and bright field images, organoid-stroma cell co-cultures. The conditions noted are these: for effect on viability: co-culture, targeted drugs, 72 hours (afatinib 0.150 μM, osimertinib 0.8 μM, dasatinib 0.180 μM, gefitinib 3 μM, imatinib 4 μM, capmatinib 8 μM). In kind it is cell-based, human. As for the experimental part:
Organoid-stroma cells co-culture: Initially, organoids were mechanically dissociated into smaller fragments through pipetting, followed by enzymatic digestion into single cells using dispase II at 37° C. for 20 minutes. Concurrently, stroma cells cultured in FM-2, ECM, and MSCM, as well as Huvec cells cultured in ECM, were harvested at 80% confluency in the flask and dissociated using accutase. In certain experiments, after cells dissociation, each cell population was stained with a vital dye before their co-culture. Cells cultured in ECM and Huvec cell lines were stained blue using the CellTrace Violet Dye Proliferation Kit. […] Imaging was performed at 10× magnification using an Olympus Confocal Microscope. Subsequently, dissociated cells were mixed in 35 ul of co-culture medium, at ratios of 1:1:1, 1:4:1, 4:1:1 and 1:1:4 of Huvec or cells cultured in ECM, cells cultured in FM2 and organoids respectively. Co-cultures composed of ECM:organoids (ORG), FM2:ORG, and Huvec:ORG were also created at 1:1, 1:4, and 4:1 ratios, respectively. Each mix, containing 4000 cells, was then co-cultured in 384 wells low repellent plates, with DMEM/F12 medium supplemented with 10 mM HEPES, abam, 2 mM glutamax, non-essential amino acids, sodium pyruvate, 500 ng ml-1 R-spondin, 100 ng ml-1 noggin, 100 ng ml-1 Wnt3A, 10 nM gastrin, Prostaglandin E2, 100 ng ml-1 IGF1, 10 ng·ml-1 FGF2, 10 ng·ml-1 FGF10, 50 ng·ml-1 EGF, B27, 0.5 μM A 83-01, 4 mM nicotinamide, 10 μM Y-27632, 1 μg ml-1 hydrocortisone, 50 μg ml-1 ascorbic acid, 5 ng ml-1 VEGF and 100 ng ml-1 IL-6, 4 μg ml-1 heparin, and 5% fetal calf serum in 10 ng·ml-1 and fibronectin and 5% Matrigel as scaffold and incubated in 5% CO2 at 37° C. for different intervals of time.
as §2

In the next assay the test system is stroma cell monocultures. Kind of assay: Drug cytotoxicity, CellTiter-Glo cell viability, stroma cell monocultures. The format is cell-based, human. Conditions: stroma cells monocultures, targeted drugs, 72 hours (dasatinib 0.180 μM, imatinib 4 μM, capmatinib 8 μM). As for the experimental part: as §1, with “Stroma cells were cultured in mesenchymal stem cell medium (MSCM) on pre-coated Matrigel (20%) and fibronectin (2 μg/cm2) 4-well dish plates. Upon reaching 80% confluency the cells were subculturing using accutase to 6 well plate and then to 25 cm flask. From passage 3 onwards, cells were sub-cultured in 25 cm flask and then in 75 cm flasks using MSCM, endothelial cell medium (ECM), or fibroblast medium (FM-2) for subsequent passages. Bright field images were obtained using Operetta High Content Screening System or Leica microscope.” left out
(§3) Cell viability assay: To assess co-culture growth rates and the cytotoxic effects of various drugs, a luminescent cell viability assay was conducted using the CellTiter-Glo kit from Promega following the manufacturer's guidelines. […] Following treatment, each well containing co-cultures or organoids was lysed using CellTiter-Glo reagents, thoroughly mixed, and incubated for 30 minutes, after which luminescence was measured.

The next assay deals with pancreas organoids. Kind of assay: Celltiter-Glo viability of drug treated pancreas organoids. In kind it is cell-based, human. Conditions: 72 hours treatment. Here is the method:
(§4) FIGS. 10A-10B: (10A) Representative immunofluorescence and brightfield images of human pancreas tumor avatar composed of Huvec endothelial cells, Org and TASCs mix at a 1:1:1, 1:4:1 or 4:1:1 ratio, respectively cultivated in a Matrigel (5%) and fibronectin scaffold (10 ng/ml), during 6 days. Org were stained with Cell Vue Claret far red fluorochrome (purple cells). Cell viability was assessed by Calcein (green)/PI (red) staining and images were acquired with Operetta Imager at 5× magnification. (10B) Line graphs showing relative light unit percentage (RLU %) of everolimus or FOLFOX treated pancreas tumor avatars and organoids as compared with their respective vehicle controls, after the same day of drug or vehicle exposure, (RLU %=RLUtreatment*100)/RLUveh). Tumor avatars were cultured for 3 days, treated with the specified drugs for other 72 hours and viability determined by Celltiter-Glo assay.
(§5) Next, the inventors aimed to examine a tumor avatar model, composed of pancreas tumor epithelial cells, TASCs and Huvec cells, cultured in the presence of a Matrigel and fibronectin scaffold. Huvec, TASCs and […] organoid-derived tumor epithelial cells clusters (5-15 cells/cluster) were seeded at different ratios (1:1:1, 1:4:4 or 4:1:4 respectively) and cultured for 6 days. Tumor cells, labelled with CellVue Claret far red fluorochrome localized in the interior of the tumor avatar.

Assay [2] relates to human pancreas tumor avatar. Kind of assay: Celltiter-Glo viability of drug treated pancreas tumor avatars. The conditions noted are these: pancreas tumor avatars (Huvec, TASCs, Org), cultured 3 days, treated 72 hours. In kind it is cell-based. Here is the method:
as §4, §5

Assay [3] concerns HUVEC:FM-2:ORG co-cultures. Kind of assay: Drug cytotoxicity, CellTiter-Glo cell viability, co-cultures containing Huvec cells. In kind it is cell-based, human. Conditions: paclitaxel 5 μM, 72 hours. Here is the method:
Organoid-stroma cells co-culture: Initially, organoids were mechanically dissociated into smaller fragments through pipetting, followed by enzymatic digestion into single cells using dispase II at 37° C. for 20 minutes. Concurrently, stroma cells cultured in FM-2, ECM, and MSCM, as well as Huvec cells cultured in ECM, were harvested at 80% confluency in the flask and dissociated using accutase. In certain experiments, after cells dissociation, each cell population was stained with a vital dye before their co-culture. Cells cultured in ECM and Huvec cell lines were stained blue using the CellTrace Violet Dye Proliferation Kit. […] Imaging was performed at 10× magnification using an Olympus Confocal Microscope. Subsequently, dissociated cells were mixed in 35 ul of co-culture medium, at ratios of 1:1:1, 1:4:1, 4:1:1 and 1:1:4 of Huvec or cells cultured in ECM, cells cultured in FM2 and organoids respectively. […]
as §3

In assay [4] the test system is patient 1 (gastrointestinal sarcoma) and patient 2 (gastric adenocarcinoma). Kind of assay: Administration to the patients. In kind it is in vivo, human. Conditions: both patients.
The test system of assay [5] is human gastric tumor avatars in the presence of lymphocytes. Kind of assay: Cell-Titer Glo viability of gastric tumor avatars with peripheral blood lymphocytes. The format is cell-based. Conditions: avatars of patient 1 and patient 2 with autologous lymphocytes, various concentrations, 72 hours. An excerpt: FIGS. 12A-12F: (12A) Representative brightfield images of human gastric tumor avatars from a patient with gastrointestinal sarcoma (patient 1) and a second patient (patient 2) with gastric adenocarcinoma, composed of organoids and stroma cells. Cells were dissociated from gastric tissue and cultured in a Matrigel dome in an adherent plate in tumor avatar medium from day 0. After 7 days of culture, organoids remain in the dome and stroma cells and metastatic tumor cells invaded the tissue culture plate outside the dome. […] (12B) Representative brightfield images of defrosted human gastric tumor avatars from defrosted tumor avatars. The tumor avatars were sub-cultured in a Matrigel dome using an adherent plate in the presence of tumor avatar medium from day 3 to day 13. […] (12C-12D). Representative brightfield images of human gastric tumor avatars from a patient with gastrointestinal sarcoma (patient 1) and a second patient (patient 2) with gastric adenocarcinoma, composed of organoids and stroma cells. […] Cell viability was detected after 72 hours of treatment using Cell-Titer Glo assay.
Lymphocytes were isolated from the peripheral blood of patient 1 and patient 2. […] Pembrolizumab was added at various concentrations to the tumor avatars and cell viability was monitored for 72 hours after treatment using the Cell-Titer Glo assay.

Consider `CN(C)C/C=C/C(=O)Nc1cc2c(Nc3ccc(F)c(Cl)c3)ncnc2cc1O[C@H]1CCOC1` [afatinib], for which the cell death result with gastric cancer organoids (organoids, 72 hours) is reported as “approximately 50%”.

For the molecule `CNC(=O)c1ccc(-c2cnc3ncc(Cc4ccc5ncccc5c4)n3n2)cc1F` [capmatinib], the “effect on viability” value in the assay with gastric cancer organoids (organoids) was “neither the organoids nor the co-culture showed significant response”; in assay [1], “neither the organoids nor the co-culture showed significant response”; with stroma cell monocultures, “decreased viability”.

As to `C[C@@H](Oc1cc(-c2cnn(C3CCNCC3)c2)cnc1N)c1c(Cl)ccc(F)c1Cl` [crizotinib], the cell death entry in the assay on gastric cancer organoids (organoids, 72 hours) is on record as “more than 50%”; in assay [1] (stroma cells-organoid co-cultures, crizotinib 1 μM, 72 hours), “more than 50%”.

As to `CO[C@H]1C[C@@H]2CC[C@@H](C)[C@@](O)(O2)C(=O)C(=O)N2CCCC[C@H]2C(=O)O[C@H]([C@H](C)C[C@@H]2CC[C@@H](OCCO)[C@H](OC)C2)CC(=O)[C@H](C)/C=C(\C)[C@@H](O)[C@@H](OC)C(=O)[C@H](C)C[C@H](C)/C=C/C=C/C=C/1C` [everolimus], the “effect of treatment on viability (RLU %)” value (in the assay on pancreas organoids; in assay [2]) was “neither the organoids nor the tumor avatar models were affected” in each case.

For `COc1cc2ncnc(Nc3ccc(F)c(Cl)c3)c2cc1OCCCN1CCOCC1` [gefitinib], the “effect on viability” value (with gastric cancer organoids (organoids); in assay [1]) was “neither the organoids nor the co-culture showed significant response” each time.

For `Cc1ccc(NC(=O)c2ccc(CN3CCN(C)CC3)cc2)cc1Nc1nccc(-c2cccnc2)n1` [imatinib], the results for the “effect on viability” value (in the assay with gastric cancer organoids (organoids); in assay [1]; with stroma cell monocultures) were “neither the organoids nor the co-culture showed significant response”, “neither the organoids nor the co-culture showed significant response” and “decreased viability”, respectively.

For `C=CC(=O)Nc1cc(Nc2nccc(-c3cn(C)c4ccccc34)n2)c(OC)cc1N(C)CCN(C)C` [osimertinib], the cell death result in the assay on gastric cancer organoids (organoids, 72 hours) is “approximately 50%”. Also, the “effect on viability” value in assay [1] is given as “resistant”.

Consider `CC(=O)O[C@H]1C(=O)[C@@]2(C)[C@H]([C@H](OC(=O)c3ccccc3)[C@]3(O)C[C@H](OC(=O)[C@H](O)[C@@H](NC(=O)c4ccccc4)c4ccccc4)C(C)=C1C3(C)C)[C@]1(OC(C)=O)CO[C@@H]1C[C@@H]2O` [paclitaxel], for which the cytotoxicity at 5 µM with gastric cancer organoids (Homo sapiens, 72 h, read-out: decrease in cell viability) came to 53%. Moreover, the “size and integrity in bright field images” value with gastric cancer organoids (organoids, paclitaxel 5 μM, 72 hours) was “reduced the size and affected the integrity”; in assay [1] (co-cultures, paclitaxel 5 μM, 72 hours), “reduced the size and affected the integrity”. In addition, the cell death is given as 22% in assay [1] (TECs:TASCs:Org ratio 1:1:4, paclitaxel 5 μM, 72 hours); “approximately 40%” in assay [1] (TECs:TASCs:Org ratios 1:1:1, 4:1:1 and 1:4:1, paclitaxel 5 μM, 72 hours); “approximately 10%” in assay [3].

“Pembrolizumab: Pembrolizumab immunotherapy”: the patient response entry in assay [4] was “both respond”. In addition, the “effectiveness (cell viability)” value in assay [5] is “effective”.
